The subject of experiment [1] is Legionella pneumophila 130b. The experiment is described as follows: Inhibition of recombinant Legionella pneumophila 130b His6-tagged NTPDase (41 to 393 residues) expressed in Escherichia coli BL21(DE3) cells using ADP as substrate at 30 uM incubated for 10 mins by capillary electrophoresis method relative to control.
Experiment [2] can be described thus: Inhibition of recombinant Legionella pneumophila 130b His6-tagged NTPDase (41 to 393 residues) expressed in Escherichia coli BL21(DE3) cells using ADP as substrate incubated for 10 mins by capillary electrophoresis method.
Experiment [3] is described as follows: Inhibition of recombinant Legionella pneumophila 130b His6-tagged NTPDase (41 to 393 residues) expressed in Escherichia coli BL21(DE3) cells using ADP as substrate incubated for 10 mins by Cheng-Prusoff equation analysis.
Experiment [4] can be described thus: Inhibition of Legionella pneumophila NTPDase.
In experiment [5] the test system is Legionella pneumophila 130b. The experiment can be described thus: Competitive inhibition of recombinant Legionella pneumophila 130b His6-tagged NTPDase (41 to 393 residues) expressed in Escherichia coli BL21(DE3) cells at 3 to 6 uM incubated for 10 mins in presence of varying levels of ADP by Lineweaver-Burk plot analysis.
The target in experiment [6] is T1, Ectonucleoside triphosphate diphosphohydrolase 1 (Homo sapiens, UniProt P49961).
T1 sequence (P49961 whole entry): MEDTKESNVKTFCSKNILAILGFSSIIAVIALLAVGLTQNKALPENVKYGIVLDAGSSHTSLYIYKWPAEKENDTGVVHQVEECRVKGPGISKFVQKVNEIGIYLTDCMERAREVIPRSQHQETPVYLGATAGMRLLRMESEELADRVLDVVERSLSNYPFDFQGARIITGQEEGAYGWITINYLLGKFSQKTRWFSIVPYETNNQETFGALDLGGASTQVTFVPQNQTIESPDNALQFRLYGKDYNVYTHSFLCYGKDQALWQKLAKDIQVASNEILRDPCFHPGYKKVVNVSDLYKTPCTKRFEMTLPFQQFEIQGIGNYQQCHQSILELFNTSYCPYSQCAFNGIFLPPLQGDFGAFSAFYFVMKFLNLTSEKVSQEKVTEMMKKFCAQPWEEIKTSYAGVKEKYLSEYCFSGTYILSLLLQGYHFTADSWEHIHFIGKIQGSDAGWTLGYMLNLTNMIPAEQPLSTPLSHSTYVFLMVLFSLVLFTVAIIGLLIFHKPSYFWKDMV
The experiment is described as follows: Inhibition of recombinant human NTPDase1 expressed in CHO cells using ADP as substrate incubated for 10 mins by capillary electrophoresis method.

For experiment [7], the target named is T2, Ectonucleoside triphosphate diphosphohydrolase 2 (Homo sapiens, UniProt Q9Y5L3).
T2 sequence (Q9Y5L3 whole entry): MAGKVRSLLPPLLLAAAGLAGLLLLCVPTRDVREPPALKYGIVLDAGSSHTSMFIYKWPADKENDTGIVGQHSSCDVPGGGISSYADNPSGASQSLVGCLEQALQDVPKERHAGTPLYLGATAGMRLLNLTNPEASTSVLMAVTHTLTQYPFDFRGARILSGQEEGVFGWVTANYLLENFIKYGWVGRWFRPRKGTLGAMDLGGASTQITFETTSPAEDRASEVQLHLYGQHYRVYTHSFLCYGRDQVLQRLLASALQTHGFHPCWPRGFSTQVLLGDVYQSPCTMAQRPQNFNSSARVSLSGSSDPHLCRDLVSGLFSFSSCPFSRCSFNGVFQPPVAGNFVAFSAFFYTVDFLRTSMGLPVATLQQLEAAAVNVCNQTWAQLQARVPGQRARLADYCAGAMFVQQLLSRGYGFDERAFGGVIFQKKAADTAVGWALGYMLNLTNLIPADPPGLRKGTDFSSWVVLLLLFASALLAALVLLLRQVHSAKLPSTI
The experiment is described as follows: Inhibition of recombinant human NTPDase2 expressed in CHO cells using ADP as substrate incubated for 10 mins by capillary electrophoresis method.

Experiment [8] concerns the target T3, Ectonucleoside triphosphate diphosphohydrolase 3 (Homo sapiens) (UniProt O75355).
T3 sequence (whole entry): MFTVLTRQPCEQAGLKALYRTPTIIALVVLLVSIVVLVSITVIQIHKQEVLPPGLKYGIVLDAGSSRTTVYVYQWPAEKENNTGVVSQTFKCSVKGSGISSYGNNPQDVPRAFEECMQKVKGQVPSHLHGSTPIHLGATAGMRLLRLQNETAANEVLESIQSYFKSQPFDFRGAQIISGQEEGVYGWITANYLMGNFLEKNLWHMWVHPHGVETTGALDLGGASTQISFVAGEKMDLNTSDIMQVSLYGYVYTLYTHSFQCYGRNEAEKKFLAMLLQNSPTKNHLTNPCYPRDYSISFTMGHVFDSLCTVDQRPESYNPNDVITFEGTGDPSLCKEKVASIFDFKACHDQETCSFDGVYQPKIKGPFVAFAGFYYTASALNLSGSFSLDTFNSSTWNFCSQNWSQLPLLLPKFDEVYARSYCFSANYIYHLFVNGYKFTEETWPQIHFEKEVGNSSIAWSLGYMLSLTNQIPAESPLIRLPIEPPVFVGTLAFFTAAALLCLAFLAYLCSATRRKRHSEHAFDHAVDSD
The experiment is described as follows: Inhibition of recombinant human NTPDase3 expressed in mouse NS0 cells using ADP as substrate at 30 uM incubated for 10 mins by capillary electrophoresis method relative to control.

Experiment [9] deals with Legionella pneumophila 130b. The settings on record: 3 uM.
The test system of experiment [10] is Legionella pneumophila 130b. The conditions noted are these: 6 uM.
In experiment [11] the test system is Legionella pneumophila 130b. The settings on record: 3 uM. The source holds these as a separate data set.
Experiment [12] concerns Legionella pneumophila 130b. The settings on record: 6 uM. The source holds these as a separate data set.

Broadly, the inhibition is the relative decrease from the control value, in per cent. The IC50 is the point on the concentration scale where inhibition reaches its midpoint. In general, Ki refers to a measure of affinity in units of concentration, obtained from inhibition or displacement. In general, Km refers to the concentration of substrate that gives half-maximal velocity. Usually Vmax stands for the rate approached at saturating substrate.

The source made the active and inactive calls. The calls are words filed in the database; no cut-off is given here.

With `COc1ccccc1Oc1ccc(Nc2cc(S(=O)(=O)O)c(N)c3c2C(=O)c2ccccc2C3=O)cc1`, in experiment [1], the inhibition was found to be 28%.

In the case of `CCOP(=O)(Cc1ccc(Nc2cc(S(=O)(=O)O)c(N)c3c2C(=O)c2ccccc2C3=O)cc1)OCC`, the inhibition result in experiment [1] is “inactive”.

For `CCCNc1cc(S(=O)(=O)O)c(N)c2c1C(=O)c1ccccc1C2=O`, the inhibition result in [1] was “inactive”. The same measure, in the same setting: the value for `Nc1c(S(=O)(=O)O)cc(Nc2ccc3ccccc3c2)c2c1C(=O)c1ccccc1C2=O` was 51%; that for `Nc1c(S(=O)(=O)O)cc(Nc2cccc3c(S(=O)(=O)O)cccc23)c2c1C(=O)c1ccccc1C2=O` was 26%. On to `Nc1c(S(=O)(=O)O)cc(Nc2cccc([N+](=O)[O-])c2)c2c1C(=O)c1ccccc1C2=O`, for which the inhibition in experiment [1] amounted to 44%. `Nc1c(S(=O)(=O)O)cc(Nc2ccccc2F)c2c1C(=O)c1ccccc1C2=O`: the inhibition result in experiment [1] is “inactive”.

On to `Nc1c(S(=O)(=O)O)cc(Nc2cccc3ccccc23)c2c1C(=O)c1ccccc1C2=O`, for which the inhibition in experiment [1] came out at 62%. For the same compound, the concentration for half-maximal inhibition (IC50) in [2] was 12.2 µM. Moreover, the Ki in [3] came out at 8.59 µM.

On to `Nc1c(S(=O)(=O)O)cc(Nc2ccc(Nc3nc(Cl)nc(Cl)n3)c(S(=O)(=O)O)c2)c2c1C(=O)c1ccccc1C2=O`, for which the inhibition in experiment [1] was 8%. As to `CCc1ccccc1Nc1cc(S(=O)(=O)O)c(N)c2c1C(=O)c1ccccc1C2=O`, the inhibition in experiment [1] turned out to be 39%. In experiment [4], `CCN(CC)c1ncnc2c1ncn2[C@@H]1O[C@H](COP(=O)(O)OP(=O)(O)OC(Br)(Br)P(=O)(O)O)[C@@H](O)[C@H]1O` returned a Ki of 500 µM. Regarding `Nc1c(S(=O)(=O)O)cc(Nc2cccc(Br)c2)c2c1C(=O)c1ccccc1C2=O`, the inhibition in [1] worked out at 44%. As to `Cc1ccccc1Nc1cc(S(=O)(=O)O)c(N)c2c1C(=O)c1ccccc1C2=O`, in experiment [1], the inhibition stood at 44%. Still for that read-out and setting: the value for `Cc1cccc(Nc2cc(S(=O)(=O)O)c(N)c3c2C(=O)c2ccccc2C3=O)c1` was 53%. In the case of `Nc1c(S(=O)(=O)O)cc(Nc2ccc(Cl)cc2)c2c1C(=O)c1ccccc1C2=O`, in [1], the inhibition was 66%. In addition, in experiment [2], the IC50 turned out to be 17.6 µM. Moreover, in experiment [3], the Ki amounted to 12.4 µM. For `Nc1c(S(=O)(=O)O)cc(NC2CCCCC2)c2c1C(=O)c1ccccc1C2=O`, the inhibition in experiment [1] amounted to 22%. Take `Nc1c(S(=O)(=O)O)cc(Nc2cc3ccccc3c3ccccc23)c2c1C(=O)c1ccccc1C2=O`: the inhibition was found to be 90% in [1] and 18% in experiment [8]. The IC50 in experiment [2] stood at 4.24 µM; in experiment [6] it was 20 µM; in experiment [7], 3 µM. For the same compound, the Ki in experiment [3] was found to be 2.99 µM. Further, in [5], the inhibition entry was “Active”. Besides, the figures for the Km in experiment [9] and in [10] were 623 µM and 710 µM, respectively. The Vmax in experiment [11] is 327 µmol/min/mg; in experiment [12], 272 µmol/min/mg.

`Nc1c(S(=O)(=O)O)cc(Nc2ccccc2)c2c1C(=O)c1ccccc1C2=O`: the inhibition in experiment [1] was 31%. Take `Nc1c(S(=O)(=O)O)cc(Nc2ccc(Nc3nc(Cl)nc(Nc4ccccc4S(=O)(=O)O)n3)c(S(=O)(=O)O)c2)c2c1C(=O)c1ccccc1C2=O`: the inhibition in experiment [1] stood at 45%.

On to `Nc1c(S(=O)(=O)O)cc(NCCc2ccccc2)c2c1C(=O)c1ccccc1C2=O`, for which the inhibition entry in experiment [1] was “inactive”. Still for that read-out and setting: the value for `Nc1c(S(=O)(=O)O)cc(Nc2ccc3cc(C(=O)O)ccc3c2)c2c1C(=O)c1ccccc1C2=O` was 32%.

In the case of `Cc1ccc2ccccc2c1Nc1cc(S(=O)(=O)O)c(N)c2c1C(=O)c1ccccc1C2=O`, the inhibition in experiment [1] was determined as 76%. Further, in experiment [2], the IC50 worked out at 13.6 µM. Besides, the Ki in experiment [3] is 9.58 µM. Consider `Nc1c(S(=O)(=O)O)cc(Nc2cccc3cc(S(=O)(=O)O)ccc23)c2c1C(=O)c1ccccc1C2=O`, for which the inhibition in experiment [1] was determined as 30%. On to `Cc1cc(C)c(Nc2cc(S(=O)(=O)O)c(N)c3c2C(=O)c2ccccc2C3=O)c(C)c1`, for which the inhibition in experiment [1] was found to be 44%.

The values above are taken from ChEMBL document CHEMBL3826900, “Inhibitors for the bacterial ectonucleotidase Lp1NTPDase from Legionella pneumophila” (Bioorg Med Chem, 2016).
